Data published in PMC6009956, “Design, synthesis and biological activity of N^4-phenylsubstituted-7H-pyrrolo[2,3-d]pyrimidin-4-amines as dual inhibitors of aurora kinase A and epidermal growth factor receptor kinase” (Journal of Enzyme Inhibition and Medicinal Chemistry, 2017).
Like-named read-outs stand apart in the source and are kept apart here.

Experiments:
[1] = biological target: T1, AURKA (Homo sapiens, UniProt O14965); assay: DiscoverX competition binding assay, AURKA; settings: read-out: Binding constant (Kd) AURKA
T1 construct: purchased DiscoverX Corporation (assay run externally by the vendor)
T1 sequence (O14965 1-403): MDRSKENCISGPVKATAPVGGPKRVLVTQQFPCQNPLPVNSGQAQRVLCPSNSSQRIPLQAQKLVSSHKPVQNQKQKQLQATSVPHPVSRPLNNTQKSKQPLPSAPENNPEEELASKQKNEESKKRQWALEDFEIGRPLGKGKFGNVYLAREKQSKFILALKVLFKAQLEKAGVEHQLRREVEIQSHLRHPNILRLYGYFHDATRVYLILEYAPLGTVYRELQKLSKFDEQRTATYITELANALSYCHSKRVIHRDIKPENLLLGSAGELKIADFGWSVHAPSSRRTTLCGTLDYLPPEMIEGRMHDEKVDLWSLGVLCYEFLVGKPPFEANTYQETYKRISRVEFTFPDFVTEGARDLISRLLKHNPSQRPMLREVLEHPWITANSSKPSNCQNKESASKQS
Experimental: The assay was performed externally at DiscoverX Corporation using a competition binding assay that quantitatively measures the ability of a compound to compete with an immobilised, active-site directed ligand[24]. The assay is performed by combining three components: DNA-tagged kinase, immobilised ligand and a test compound. The ability of the test compound to compete with the immobilised ligand was measured via quantitative PCR of the DNA tag. An 11-point 3-fold serial dilution of each test compound was prepared in 100% of DMSO at 100× final test concentration and subsequently diluted to 1× in the assay (final DMSO concentration = 1%). […] Binding constants (Kd) were calculated with a standard dose-response curve using the Hill equation.
Binding Affinities for EGFR, AURKA and AURKB
The assay was performed externally at DiscoverX Corporation using a competition binding assay that quantitatively measures the ability of a compound to compete with an immobilized, active-site directed ligand for target kinases AURKA, AURKB and EGFR.23 The assay is performed by combining three components: DNA-tagged kinase; immobilized ligand; and a test compound. The ability of the test compound to compete with the immobilized ligand was measured via quantitative PCR of the DNA tag. […] Compound Kds were determined using a compound top […]

[2] = test system: EGFR (pEGFR, pERK, p-AKT) in BHY cells; assay: Western blot of EGFR downstream targets in BHY cells; assay type: cell-based; settings: 100 μM
Experimental: Protein extracts (50 μg per lane) were electrophoretically separated on SDS-PAGE gels, transferred to membranes (Protran, Schleicher & Schuell, Dassel, Germany) and blotted with specific antibodies (actin, aurora A, aurora B: all from Sigma, Munich, Germany; S10-HH3: Millipore, Schwalbach, Germany; EGFR: Santa Cruz, Heidelberg, Germany; pEGFR: Invitrogen, Darmstadt, Germany; pAKT, pERK: both from New England Biolabs, Frankfurt, Germany).
Figure 4. Effects of compound 2 on EGFR and aurora kinases in growing SCCHN cell lines (A) Western blot analysis of EGFR (pEGFR, pERK, p-AKT) and aurora A (p-HH3) downstream target proteins following incubation with 100 μM compound 2 for the indicated time points in BHY and FADU SCCHN cell lines. (B) BHY and CAL cell lines treated for the indicated time points with 200 nM cetuximab. Western blot analysis of EGFR downstream targets. (long exposure and short exposure). […] Western blot analysis of p-HH3 at the indicated time points. Asterisk (*) represents unspecific band.

[3] = test system: FADU and BHY cell lines; assay: Cell cycle analysis (PI, flow cytometry); assay type: cell-based; settings: 100 μM, 24 and 48 h; more pronounced in BHY
Experimental: For analysis of cell cycle distribution, cells were fixed with 70% of ethanol and stained with PI. Flow cytometric analysis of DNA content was performed using PI in the FL2 chanel in linear mode. Cells with less than diploid DNA content were considered dead (sub-G1).
Figure 5. Cell cycle analysis of FADU and BHY cell lines incubated for 24 and 48 h with 100 μM of compound 2. Cell cycle distribution according to PI uptake, shown is the cell fraction subG1 for cell death and in G1, S and G2M phase of the cell cycle. n = 3, * p < .01, ** p < .001.

[4] = biological target: EGFR (Homo sapiens, UniProt P00533); assay: ADP-Glo kinase assay, EGFR; assay type: biochemical; parameters: purchased BPS Bioscience (assay run externally by the vendor)
EGFR, sequence (P00533 25-1210): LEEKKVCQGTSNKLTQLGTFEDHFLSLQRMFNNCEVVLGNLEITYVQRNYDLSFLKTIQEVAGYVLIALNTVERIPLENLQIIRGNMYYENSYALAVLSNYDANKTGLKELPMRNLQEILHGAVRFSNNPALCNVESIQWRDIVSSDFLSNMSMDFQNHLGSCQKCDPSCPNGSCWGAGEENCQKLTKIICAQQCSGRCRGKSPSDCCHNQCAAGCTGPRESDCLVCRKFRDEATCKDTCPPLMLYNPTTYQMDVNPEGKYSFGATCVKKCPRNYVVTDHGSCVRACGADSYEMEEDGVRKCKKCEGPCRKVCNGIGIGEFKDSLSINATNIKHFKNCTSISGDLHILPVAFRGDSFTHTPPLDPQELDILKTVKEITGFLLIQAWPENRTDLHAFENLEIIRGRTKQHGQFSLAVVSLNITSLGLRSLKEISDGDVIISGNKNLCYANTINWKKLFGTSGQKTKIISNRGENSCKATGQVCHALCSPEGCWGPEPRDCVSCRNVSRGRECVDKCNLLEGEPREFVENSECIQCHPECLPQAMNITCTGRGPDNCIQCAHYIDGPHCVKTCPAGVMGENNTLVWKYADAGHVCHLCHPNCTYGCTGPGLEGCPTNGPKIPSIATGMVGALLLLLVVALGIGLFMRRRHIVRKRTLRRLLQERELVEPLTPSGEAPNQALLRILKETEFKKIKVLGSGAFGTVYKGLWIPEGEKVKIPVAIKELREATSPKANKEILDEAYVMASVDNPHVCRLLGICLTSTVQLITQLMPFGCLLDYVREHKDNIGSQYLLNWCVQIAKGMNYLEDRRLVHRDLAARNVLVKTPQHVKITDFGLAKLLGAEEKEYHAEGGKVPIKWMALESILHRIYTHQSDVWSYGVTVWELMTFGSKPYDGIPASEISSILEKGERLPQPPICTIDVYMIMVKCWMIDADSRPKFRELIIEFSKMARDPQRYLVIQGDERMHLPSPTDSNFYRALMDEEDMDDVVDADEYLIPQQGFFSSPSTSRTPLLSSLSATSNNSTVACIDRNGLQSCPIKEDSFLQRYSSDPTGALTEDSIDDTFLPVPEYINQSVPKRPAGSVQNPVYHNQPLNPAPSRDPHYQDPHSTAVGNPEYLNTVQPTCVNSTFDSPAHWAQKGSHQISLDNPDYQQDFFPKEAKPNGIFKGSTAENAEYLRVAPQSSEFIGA

## Brc1cccc(Nc2ncnc3[nH]ccc23)c1 [Compound 2, N^4-(3-bromophenyl)-7H-pyrrolo[2,3-d]pyrimidine-4-amine]
[1]
  Kd: 3400 nM
[2]
  EGFR-mediated phosphorylation steps (pEGFR, pERK, p-AKT): modified
[3]
  Cell cycle distribution: cell cycle arrest in G2M
[4]
  EGFR inhibition (in words): single-digit nanomolar EGFR inhibition
[4]; 10 µM ATP, triplicate, read-out: EGFR IC50 ± SD
  IC50: 3.76 ± 0.12 nM
[4]; 10 µM ATP/0.2 mg/ml Poly-Glu-Tyr, read-out: EGFR IC50 (dose-response curve, supplement)
  IC50: 3.8 nM
[4]; Log[nM] 0
  EGFR % Activity Set1: 43%
  EGFR % Activity Set2: 41%
  EGFR % Activity Set3: 41%
[4]; Log[nM] 1.0
  EGFR % Activity Set1: 29%
  EGFR % Activity Set2: 29%
  EGFR % Activity Set3: 28%
[4]; Log[nM] 1.5
  EGFR % Activity Set1: 11%
  EGFR % Activity Set2: 9%
  EGFR % Activity Set3: 11%
[4]; Log[nM] 2.0
  EGFR % Activity Set1: 6%
  EGFR % Activity Set2: 6%
  EGFR % Activity Set3: 6%
[4]; Log[nM] 2.5
  EGFR % Activity Set1: 3%
  EGFR % Activity Set2: 2%
  EGFR % Activity Set3: 3%
[4]; Log[nM] 3.0
  EGFR % Activity Set1: 1%
  EGFR % Activity Set2: 1%
  EGFR % Activity Set3: 1%
[4]; Log[nM] 3.5
  EGFR % Activity Set1: 1%
  EGFR % Activity Set2: 1%
  EGFR % Activity Set3: 0%
[4]; Log[nM] 4.0
  EGFR % Activity Set1: 0%
  EGFR % Activity Set2: 0%
  EGFR % Activity Set3: 0%
[4]; Log[nM] 4.5
  EGFR % Activity Set1: 0%
  EGFR % Activity Set2: 0%
  EGFR % Activity Set3: 0%
[4]; Log[nM] 5.0
  EGFR % Activity Set1: 0%
  EGFR % Activity Set2: 0%
  EGFR % Activity Set3: 0%
